Here are results for six compounds from patent US10709708B2, “Method of treating cancer with a combination of MER tyrosine kinase inhibitor and an epidermal growth factor receptor (EGFR) inhibitor” (Emory University, priority 2016, dated 2020).

Like-named read-outs stand apart in the source and are kept apart here.

Assay [1] relates to wild-type EGFR NSCLC cell lines. Briefly: Cell counts of wild-type EGFR NSCLC cell lines after 60 hours. Type of assay: cell-based. Here is the method: (§1) NSCLC and normal bronchial epithelial (BEAS2B) cell lines were cultured with CO-1686 for 60 hours and confluency was determined (BEAS2B) or cells were counted (NSCLC cell lines) and normalized to vehicle-controls.
The indicated NSCLC cell lines were treated with CO-1686 and/or MRX-2843 for 60 hours and cells were counted and normalized to vehicle controls.

The test system of assay [2] is mutant EGFR NSCLC cell lines. Briefly: Cell counts of mutant EGFR NSCLC cell lines. Type of assay: cell-based. To be noted: mutant EGFR NSCLC cell lines (H1650, H4006, PC9, HCC827). Here is the method:
as §1
For treatment with CO-1686, the cell lines are shown in FIG. 9A (H1650), FIG. 9B (H4006), and FIG. 9C (PC9). For treatment with AZD-9291, the cell lines are shown in FIG. 9D (H1650) and FIG. 9E (HCC827). The indicated NSCLC cell lines were treated with CO-1686, AZD-9291, and/or MRX-2843 and cells were counted every 2 hours.

Assay [3] concerns mutant forms of EGFR including T790M. The following applies: Walter et al. 2013; cited from earlier work.
In assay [4] the test system is mutant EGFR NSCLC cell lines. To be noted: EGFR mutation incl. T790M (H1975); 1 μM; as reported by Walter; cited from earlier work.
For assay [5], the system named is wild-type EGFR NSCLC cell lines. To be noted: as reported by Walter; cited from earlier work.
For another assay, the system named is A549 cells. Briefly: Expansion of A549 cells in culture, Incucyte ZOOM live cell imaging. To be noted: for reduction of A549 cell number: agents alone or together at the same concentrations. Type of assay: cell-based.
The next assay relates to A549 shMERTK cells. Briefly: Confluence of A549 shMERTK cells, Incucyte ZOOM live cell imaging. The format is cell-based. To be noted: A549 shMERTK cell line, CO-1686 vs vehicle. The source says:
FIGS. 5A and 5B show inhibition of MERTK using shRNA sensitized A549 cells to CO-1686. FIG. 5A is an immunoblot showing decreased MERTK expression mediated by shRNA in A549 cells. […] FIG. 6A is an immunoblot showing decreased EGFR expression mediated by siRNA in A549 and […] cells.

The subject of assay [6] is mutant EGFR NSCLC cells & EGFR TKI-resistant derivatives. Briefly: Viable cell counts of mutant EGFR NSCLC cells and EGFR TKI-resistant derivatives. Type of assay: cell-based. To be noted: H1975, H1650 and AZD-9291 or erlotinib resistant derivatives. As for the experimental part:
The indicated cell lines are shown in FIG. 15A (H1975), FIG. 15B (H1650), FIG. 15C (H1975^AZD-R), and FIG. 15D (H1650^AZD-R).
The indicated cell lines are shown in FIG. 16A (H1975), FIG. 16B (H1650), FIG. 16C (H4011), FIG. 16D (H1975^AZD-R), FIG. 16E (H1650^AZD-R), and FIG. 16F (H1650^ERL-R).
NSCLC cells were cultured in the presence of the indicated compound(s) or an equivalent volume of vehicle (DMSO) only and the numbers of viable cells were counted at the indicated intervals using the Incucyte ZOOM live cell imaging system.

A word on the IC50: it is the concentration at which inhibition is half-maximal. With `C=CC(=O)Nc1cccc(Nc2nc(Nc3ccc(N4CCN(C(C)=O)CC4)cc3OC)ncc2C(F)(F)F)c1` [CO-1686, Rociletinib], the “interaction with MRX-2843” value in assay [1] (broad spectrum of wild-type EGFR NSCLC cell lines) is given as “synergizes”; in assay [2] it was “synergize”. Moreover, the results for the “sensitivity of cell lines to CO-1686” value in assay [1] (wild-type EGFR cell lines compared to mutant EGFR lines), in assay [4] and in assay [5] were “resistant”, “clear sensitivity” and “resistant”, respectively. Further, in assay [3], the 50% inhibitory concentration (IC50) is 21 nM. For the same compound, the “reduction of A549 cell number” value in the assay on A549 cells (A549 cells) worked out at 20.9±5.7%. Further, the “reduction in cell number” value in the assay with A549 cells (wild-type A549 cells, CO-1686 vs vehicle, confluence) is listed as 9.9±2.89%; with A549 shMERTK cells, 23.4±0.22%.

Turning to `CN1CCN(Cc2ccc(-c3cn([C@H]4CC[C@H](O)CC4)c4nc(NCCC5CC5)ncc34)cc2)CC1` [MRX-2843], in the assay with A549 cells (A549 cells), the “reduction of A549 cell number” value came out at 13.2±4.1%.

`CN1CCC(CNc2ccc3ncc(-c4cccc(OC(F)(F)F)c4)n3n2)CC1` [SGI-1776]: the “anti-tumor activity in combination with MRX-2843” value in assay [6] is “synergistic anti-tumor activity”.

With `Nc1nc(Nc2ccc3c(c2)CCC(N2CCCC2)CC3)nn1-c1cc2c(nn1)-c1ccccc1CCC2` (stereo not drawn) [R428], the “interaction with CO-1686” value in the assay with A549 cells (A549 cells, combined with CO-1686) was “synergized”.

Consider `Clc1ccc(C2(c3ccc(-c4cn[nH]c4)cc3)CCNCC2)cc1` [AT7867], for which the “anti-tumor activity in combination with MRX-2843” value in assay [6] is given as “synergistic anti-tumor activity”.

Consider `C=CC(=O)Nc1cc(Nc2nccc(-c3cn(C)c4ccccc34)n2)c(OC)cc1N(C)CCN(C)C` [AZD-9291, Osimertinib], for which the “interaction with MRX-2843” value in assay [2] was “synergize”; with A549 cells (A549 cells, combined with MRX-2843), “synergized”.
